# Measurements as given in patent US5162373A, “Methods and improved formulations for the determination and treatment of malignant disease in patients” (priority 1989, dated 1992).
# What was measured:
# [1] = test system: intestinal epithelium / gut mucosa; settings: cited from earlier work
# [2] = test system: intestinal epithelium / gut mucosa; assay: Trophic/protective effect on intestinal epithelium, other studies; assay type: in vivo; settings: doses as high as 20 g/L
# [3] = Toxicity of continuous i.v. DFMO infusion in rats (FIG. 3); assay type: in vivo, rat; settings: 12 days; 500-2000 mg/kg/day
# Description: FIG. 3. […] Bars indicate standard deviation.
# In the above described rat model, a continuous infusion of DFMO was given through a central venous catheter.
# [4] = parameters: species or system human (patients with advanced colorectal carcinoma); settings: human, in vivo
# Description: FIG. 4. Platelet counts plotted against days of continuous i.v. DFMO infusion in patients with advanced colorectal carcinoma. […] The paired points are connected by a straight line.
# There was no incidence of nausea, vomiting or diarrhea.
# platelets = settings: rat, in vivo
# [5] = test system: tumor putrescine; MCA sarcoma
structure (smiles),measurement,setting,value
NCCCCN [putrescine],colonic DNA and protein content,[1]; about 50 micromole/100 gram body weight,increases in colonic DNA and protein content
same,DNA and RNA content and protein in ileum,[1]; putrescine about 1 micromole,increased DNA and RNA content and protein
same,mucosal proliferation,[1]; putrescine: intraluminal infusion,stimulation of mucosal proliferation
"NC(=O)CC[C@H](N)C(=O)O [glutamine, L-glutamine]",trophic effect on intestinal epithelium,[2],"trophic effect on intestinal epithelium, especially the ileum"
same,"gut epithelium, glutamine added to TPN",[1]; 10-20 g/L,restores gut epithelium
same,transmucosal migration of bacteria into mesenteric lymph nodes,[1]; compared with glutamine deficient formulas,present transmucosal migration of bacteria into mesenteric lymph nodes
same,protection of gut mucosa,"[1]; oral, rats receiving toxic doses of 5FU or methotrexate",protected the gut mucosa
"NCCCC(N)(C(=O)O)C(F)F (stereo not shown) [DFMO, Difluoromethylornithine]",clinical toxicity,[3],no significant clinical toxicity
same,White cell count,[4],not affected by either dose
same,decreased hearing acuity,[4],two patients who experienced decreased hearing acuity
same,hematocrit,[4],Significant suppression of the hematocrit
same,"nausea, vomiting or diarrhea",[4],no incidence
same,platelet suppression,[4],significant at both doses
same,"platelet suppression, 8 g vs 6 g dose",[4],significantly greater platelet suppression at the 8 g dose as compared with the 6 g dose
same,resolution of toxicities after discontinuing infusion,[4],resolved spontaneously within two weeks
same,"platelet suppression, in words",platelets,significant decrease in platelet count as compared with the saline treatment
same,decrease in tumor putrescine levels,[5]; DFMO infusion,90%
same,growth of MCA sarcoma,"[5]; rat, in vivo",reduces the growth rate of an MCA sarcoma but does not produce tumor regression
same,peripheral platelet counts,"[5]; rat, in vivo",without suppressing peripheral platelet counts
